# Measurements published in patent US20250032417A1, “LYOPHILIZED METOLAZONE FORMULATION FOR PARENTERAL ADMINISTRATION” (Hyloris Developments SA, priority 2023, published 2025).
# Where “and” joins values, the source holds several entries; their conditions need not be identical. Equal entries are not always repeated.
# Assays:
# [1] = Diluent selection study: solubility of metolazone in diluent mixtures; type: physicochemical
# Experimental: The diluent selection study was conducted to select the best diluent combination for metolazone. The following components were evaluated in combination with phosphate buffer to check the solubility of metolazone and to observe the solution clarity.
# Procedure for Example no ITT-1 to 111-5: An excess amount of drug substance PSD (particle size distribution) 10 micron (60 mg) was added to the 20 mL diluent mixtures specified in Ex. III-1 to II-5 so that the theoretical concentration was 3 mg/mL. After drug addition, these samples were sonicated up to 4 hr using a sonicator at room temperature. Solution clarity and quantitative solubility were observed.
# [2] = Saturation solubility of metolazone in TBA:water ratios; type: physicochemical; conditions: for solubility: aqueous with cosolvent or surfactant or cyclodextrin, thermodynamic from solid
# Experimental: Saturation solubility study of metolazone was conducted in different water to tertiary butyl alcohol ratios ranging from 20-40% of TBA and 80-60% water. The study was conducted in triplicate.
# [3] = 25° C.; cited from earlier work
# [4] = Tertiary butyl alcohol-water solubility trials (visual); type: physicochemical
# Experimental: Before initiating solvent based Lyophilization trials, a detail assessment of metolazone solubility in Water+TBA (Tertiary butyl alcohol) was carried out to identify optimum ratio of TBA:Water.
smiles,measurement,setting,value
"Cc1ccccc1N1C(=O)c2cc(S(N)(=O)=O)c(Cl)cc2NC1C (centres unmarked) [Metolazone, 7-chloro-1,2,3,4-tetrahydro-2-methyl-3-(2-methylphenyl)-4-oxo-6-quinazoline sulfonamide]",solubility,"[1]; 40% PEG in buffer, aqueous with cosolvent or surfactant or cyclodextrin, thermodynamic from solid, 40% PEG in all tested buffers, API with particle size D90<10 microns, read-out: solubility",> 1200 µg/mL
same,solubility,"[1]; 40% PEG-400 and 0.4% Kolliphor HS-15 in Tris buffer, pH 7.5, aqueous with cosolvent or surfactant or cyclodextrin, thermodynamic from solid, Ex: III-4, 031D: 40% PEG-400 + Kolliphor HS-15 0.4% + Tris buffer pH 7.5, read-out: Solubility",2310 µg/mL
same,solubility,"[1]; 40% PEG-400 and 0.4% Kolliphor HS-15 in phosphate buffer, pH 7.5, aqueous with cosolvent or surfactant or cyclodextrin, thermodynamic from solid, Ex: III-3, 031C: 40% PEG-400 + Kolliphor HS-15 0.4% + Phosphate buffer pH 7.5, read-out: Solubility",2160 µg/mL
same,solubility,"[1]; 40% PEG-400 in Tris buffer, pH 7.5, aqueous with cosolvent or surfactant or cyclodextrin, thermodynamic from solid, Ex: III-2, 031B: 40% PEG-400 + Tris buffer pH 7.5, read-out: Solubility",1280 µg/mL
same,solubility,"[1]; 40% PEG-400 in phosphate buffer, pH 7.5, aqueous with cosolvent or surfactant or cyclodextrin, thermodynamic from solid, Ex: III-1, 031A: 40% PEG-400 + Phosphate buffer pH 7.5, API PSD 10 micron, sonicated up to 4 hr, room temperature, read-out: Solubility",1800 µg/mL
same,solubility,"[1]; Ex: III-1, 031A: 40% PEG-400 + Phosphate buffer pH 7.5, API PSD 10 micron, sonicated up to 4 hr, room temperature",1862 µg/mL
same,solubility,"[1]; tertiary butyl alcohol/water for injection mixture, aqueous with cosolvent or surfactant or cyclodextrin, thermodynamic from solid, Ex: III-5, 031E: 50% Tertiary butyl alcohol and 50% Water for injection, read-out: Solubility",3120 µg/mL
same,Solubility of each trial,[2]; 028A: 20% Tertiary butyl alcohol and 80% water mixture [20:80],289 µg/mL and 281 µg/mL
same,Solubility of each trial,[2]; 028B: 30% Tertiary butyl alcohol and 70% water mixture [30:70],948 µg/mL and 1044 µg/mL
same,Solubility of each trial,[2]; 028C: 40% Tertiary butyl alcohol and 60% water mixture [40:60],2122 µg/mL and 2025 µg/mL
same,slope of metolazone solubility versus TBA fraction in solvent,[2]; FIG. 4,0.0913
same,solubility,"[2]; tertiary butyl alcohol/water mixture, 028A: 20% Tertiary butyl alcohol and 80% water mixture [20:80], read-out: Average solubility",279 µg/mL
same,solubility,"[2]; tertiary butyl alcohol/water mixture, 028A: 20% Tertiary butyl alcohol and 80% water mixture [20:80], read-out: Solubility of each trial",267 µg/mL
same,solubility,"[2]; tertiary butyl alcohol/water mixture, 028B: 30% Tertiary butyl alcohol and 70% water mixture [30:70], read-out: Average solubility",1010 µg/mL
same,solubility,"[2]; tertiary butyl alcohol/water mixture, 028B: 30% Tertiary butyl alcohol and 70% water mixture [30:70], read-out: Solubility of each trial",1050 µg/mL
same,solubility,"[2]; tertiary butyl alcohol/water mixture, 028C: 40% Tertiary butyl alcohol and 60% water mixture [40:60], read-out: Average solubility",2110 µg/mL
same,solubility,"[2]; tertiary butyl alcohol/water mixture, 028C: 40% Tertiary butyl alcohol and 60% water mixture [40:60], read-out: Solubility of each trial",2170 µg/mL
same,solubility,"[2]; tertiary butyl alcohol/water mixtures, TBA:water in the ratio of 30:70 to 40:60, read-out: solubility in solvent (TBA:water)",> 1000 µg/mL
same,solubility in ethanol,[3],9000 µg/mL
same,Observations,"[4]; Trial 1: WFI, 5.04 mg metolazone, Q.S. to 10 mL",Insoluble
same,Observations,"[4]; Trial 2: 20% TBA, 10.08 mg metolazone, Q.S. to 20 mL",opalescent
same,Observations,"[4]; Trial 3: 30% TBA, 15.12 mg metolazone, Q.S. to 20 mL",clear
same,Observations,"[4]; Trial 4: 40% TBA, 30.24 mg metolazone, Q.S. to 20 mL",clear
same,Observations,"[4]; Trial 5: 50% TBA, 30.24 mg metolazone, Q.S. to 20 mL",clear
same,Observations,"[4]; Trial 6: 60% TBA, 30.24 mg metolazone, Q.S. to 20 mL",clear
same,Observations,"[4]; Trial 7: 30% TBA, 20.16 mg metolazone, Q.S. to 20 mL",clear
